biological target: human NaV 1.8 (Homo sapiens, UniProt Q9Y5Y9); experiment: E-VIPR assay for detecting and measuring NaV inhibition properties; type: cell-based; conditions: E-VIPR assay conducted in the presence of human serum; HEK cells expressing truncated human NaV 1.8
Summary of the method: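 HEK cells with truncated human NaV1.8 plus KIR2.1 BacMam, hexyl dye loaded 20 min, compound 30 min at room temperature, 11-point 3-fold series […], 0.625% DMSO, with or without human serum. E-VIPR biphasic stimulation at 10 Hz for 10 s; membrane-potential response read as normalized coumarin/oxonol ratio.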

human NaV 1.8, sequence (Q9Y5Y9 whole entry, looked up, the tested form may be a part): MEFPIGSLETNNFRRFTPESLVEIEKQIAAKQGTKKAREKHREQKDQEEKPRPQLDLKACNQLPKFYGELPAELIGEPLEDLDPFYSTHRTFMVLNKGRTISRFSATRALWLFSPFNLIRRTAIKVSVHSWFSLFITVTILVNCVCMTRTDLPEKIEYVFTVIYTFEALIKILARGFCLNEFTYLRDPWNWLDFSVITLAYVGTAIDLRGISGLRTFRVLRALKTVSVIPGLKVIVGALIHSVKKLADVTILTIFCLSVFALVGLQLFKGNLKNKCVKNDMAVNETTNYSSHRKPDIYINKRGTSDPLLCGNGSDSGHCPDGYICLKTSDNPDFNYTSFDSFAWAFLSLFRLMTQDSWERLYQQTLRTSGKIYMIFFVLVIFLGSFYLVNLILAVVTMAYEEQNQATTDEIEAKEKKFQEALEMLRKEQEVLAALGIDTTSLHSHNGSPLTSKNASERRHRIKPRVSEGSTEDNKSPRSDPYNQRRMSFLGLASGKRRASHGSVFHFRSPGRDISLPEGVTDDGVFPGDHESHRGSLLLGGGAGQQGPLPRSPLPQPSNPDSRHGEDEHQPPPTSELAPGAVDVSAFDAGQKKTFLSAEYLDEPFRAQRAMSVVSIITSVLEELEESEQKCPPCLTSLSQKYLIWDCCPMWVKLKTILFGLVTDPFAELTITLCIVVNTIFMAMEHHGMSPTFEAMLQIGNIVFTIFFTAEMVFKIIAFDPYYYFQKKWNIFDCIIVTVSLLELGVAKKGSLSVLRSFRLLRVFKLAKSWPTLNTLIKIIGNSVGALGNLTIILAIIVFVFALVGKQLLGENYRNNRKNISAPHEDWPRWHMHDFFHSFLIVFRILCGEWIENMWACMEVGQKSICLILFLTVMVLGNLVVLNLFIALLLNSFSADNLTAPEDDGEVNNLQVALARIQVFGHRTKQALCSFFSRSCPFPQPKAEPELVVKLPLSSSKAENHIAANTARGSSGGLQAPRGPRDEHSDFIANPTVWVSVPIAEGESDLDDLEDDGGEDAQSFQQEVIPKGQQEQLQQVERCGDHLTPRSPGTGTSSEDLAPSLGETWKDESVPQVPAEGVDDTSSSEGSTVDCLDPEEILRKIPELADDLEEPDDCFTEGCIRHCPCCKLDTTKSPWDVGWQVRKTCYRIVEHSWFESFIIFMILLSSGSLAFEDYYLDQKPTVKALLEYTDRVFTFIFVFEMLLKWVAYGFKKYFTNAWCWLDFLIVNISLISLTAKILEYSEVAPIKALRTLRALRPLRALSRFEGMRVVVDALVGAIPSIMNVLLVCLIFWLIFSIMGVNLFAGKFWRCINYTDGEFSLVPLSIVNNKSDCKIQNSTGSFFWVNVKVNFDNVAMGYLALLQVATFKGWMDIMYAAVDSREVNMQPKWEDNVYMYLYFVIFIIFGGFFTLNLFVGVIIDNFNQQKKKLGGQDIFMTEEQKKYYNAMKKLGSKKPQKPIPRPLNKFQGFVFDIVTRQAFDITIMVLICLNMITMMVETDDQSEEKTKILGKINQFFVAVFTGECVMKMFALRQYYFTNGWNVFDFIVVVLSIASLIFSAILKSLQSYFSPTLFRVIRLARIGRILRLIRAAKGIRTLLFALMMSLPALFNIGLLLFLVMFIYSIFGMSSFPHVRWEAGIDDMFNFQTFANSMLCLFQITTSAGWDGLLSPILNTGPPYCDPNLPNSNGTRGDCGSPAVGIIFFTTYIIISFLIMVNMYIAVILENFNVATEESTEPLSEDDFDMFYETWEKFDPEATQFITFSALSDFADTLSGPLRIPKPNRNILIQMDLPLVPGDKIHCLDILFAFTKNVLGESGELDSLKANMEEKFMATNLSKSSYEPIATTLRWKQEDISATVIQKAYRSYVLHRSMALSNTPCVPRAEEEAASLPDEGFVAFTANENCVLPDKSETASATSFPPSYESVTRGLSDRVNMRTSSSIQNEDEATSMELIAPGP

| SMILES | IC50 |
| --- | --- |
| COc1cc(OC(F)(F)F)ccc1Oc1ccc(-c2ccccc2)c(F)c1C(=O)Nc1ccnc(C(N)=O)c1 [Compound 177, 4-[[2-fluoro-6-[2-methoxy-4-(trifluoromethoxy)phenoxy]-3-phenyl-benzoyl]amino]pyridine-2-carboxamide] | 20 nM |

same assay, conditions: E-VIPR assay conducted in the presence of human serum; HEK cells expressing truncated human NaV 1.8; read-out: IC50

| SMILES | IC50 |
| --- | --- |
| NC(=O)c1cc(NC(=O)c2ccc(C(F)(F)F)cc2Oc2ccc(F)cc2Cl)ccn1 [Compound 161, 4-[[2-(2-chloro-4-fluoro-phenoxy)-4-(trifluoromethyl)benzoyl]amino]pyridine-2-carboxamide] | > 3000 nM |
| NC(=O)c1cc(NC(=O)c2ccc(C(F)(F)F)cc2Oc2ccc(F)c(F)c2)ccn1 [Compound 163, 4-[[2-(3,4-difluorophenoxy)-4-(trifluoromethyl)benzoyl]amino]pyridine-2-carboxamide] | > 3000 nM |
| CC(C)Oc1ccc(Oc2cc(C(F)(F)F)ccc2C(=O)Nc2ccnc(C(N)=O)c2)cc1 [Compound 164, 4-[[2-(4-isopropoxyphenoxy)-4-(trifluoromethyl)benzoyl]amino]pyridine-2-carboxamide] | > 3000 nM |
| NC(=O)c1cc(NC(=O)c2ccc(C(F)(F)F)cc2Oc2ccc(F)c3c2OCC3)ccn1 [Compound 165, 4-[[2-[(4-fluoro-2,3-dihydrobenzofuran-7-yl)oxy]-4-(trifluoromethyl)benzoyl]amino]pyridine-2-carboxamide] | > 3000 nM |
| Cc1cc(Oc2cc(C(F)(F)F)ccc2C(=O)Nc2ccnc(C(N)=O)c2)ccc1F [Compound 166, 4-[[2-(4-fluoro-3-methyl-phenoxy)-4-(trifluoromethyl)benzoyl]amino]pyridine-2-carboxamide] | > 3000 nM |
| COc1cc(Oc2cc(C(F)(F)F)ccc2C(=O)Nc2ccnc(C(N)=O)c2)ccc1F [Compound 167, 4-[[2-(4-fluoro-3-methoxy-phenoxy)-4-(trifluoromethyl)benzoyl]amino]pyridine-2-carboxamide] | > 3000 nM |
| COc1cc(OC(F)(F)F)ccc1Oc1cc(-c2ccc(F)cc2)cc(F)c1C(=O)Nc1ccc(C(N)=O)nc1 [Compound 170, 5-[[2-fluoro-4-(4-fluorophenyl)-6-[2-methoxy-4-(trifluoromethoxy)phenoxy]benzoyl]amino]pyridine-2-carboxamide] | 230 nM |
| COc1cc(OC(F)(F)F)ccc1Oc1cc(-c2ccc(Cl)cc2)cc(F)c1C(=O)Nc1ccnc(C(N)=O)c1 [Compound 171, 4-[[4-(4-chlorophenyl)-2-fluoro-6-[2-methoxy-4-(trifluoromethoxy)phenoxy]benzoyl]amino]pyridine-2-carboxamide] | 9 nM |
| COc1cc(OC(F)(F)F)ccc1Oc1cc(-c2ccc(C(C)(C)C)cc2)cc(F)c1C(=O)Nc1ccnc(C(N)=O)c1 [Compound 172] | 50 nM |
| [2H]C([2H])([2H])Oc1cc(OC(F)(F)F)ccc1Oc1cc(C(F)(F)F)cnc1C(=O)Nc1ccnc(C(N)=O)c1 [Compound 173, N-(2-carbamoyl-4-pyridyl)-3-[2-(trideuteriomethoxy)-4-(trifluoromethoxy)phenoxy]-5-(trifluoromethyl)pyridine-2-carboxamide] | 1300 nM |
| [2H]C([2H])([2H])Oc1cc(OC(F)(F)F)ccc1Oc1cc(C(F)(F)F)cnc1C(=O)Nc1ccc(C(N)=O)nc1 [Compound 174, N-(6-carbamoyl-3-pyridyl)-3-[2-(trideuteriomethoxy)-4-(trifluoromethoxy)phenoxy]-5-(trifluoromethyl)pyridine-2-carboxamide] | > 3000 nM |
| NC(=O)c1ccc(NC(=O)c2c(Oc3ccc(F)cc3Cl)ccc(C(F)(F)F)c2F)cn1 [Compound 176, 5-[[6-(2-chloro-4-fluoro-phenoxy)-2-fluoro-3-(trifluoromethyl)benzoyl]amino]pyridine-2-carboxamide] | 490 nM |
| CCc1cc(C(F)(F)F)cc(Oc2ccc(OC(F)(F)F)cc2OC)c1C(=O)Nc1ccnc(C(N)=O)c1 [Compound 178, 4-[[2-ethyl-6-[2-methoxy-4-(trifluoromethoxy)phenoxy]-4-(trifluoromethyl)benzoyl]amino]pyridine-2-carboxamide] | 27 nM |
| COc1c(Oc2ccc(C(F)(F)F)c(C)c2C(=O)Nc2ccc(C(N)=O)nc2)ccc(F)c1F [Compound 179, 5-[[6-(3,4-difluoro-2-methoxy-phenoxy)-2-methyl-3-(trifluoromethyl)benzoyl]amino]pyridine-2-carboxamide] | 2000 nM |
| COc1c(Oc2ccc(C(F)(F)F)c(C)c2C(=O)Nc2cc(C(N)=O)ncc2C)ccc(F)c1F [Compound 180, 4-[[6-(3,4-difluoro-2-methoxy-phenoxy)-2-methyl-3-(trifluoromethyl)benzoyl]amino]-5-methyl-pyridine-2-carboxamide] | 510 nM |
| COc1cc(OC(F)(F)F)ccc1Oc1ccc(C2CC2)c(C)c1C(=O)Nc1ccnc(C(N)=O)c1 [Compound 181, 4-[[3-cyclopropyl-6-[2-methoxy-4-(trifluoromethoxy)phenoxy]-2-methyl-benzoyl]amino]pyridine-2-carboxamide] | 12 nM |
| COc1cc(OC(F)(F)F)ccc1Oc1ccc(C2CC2)c(C)c1C(=O)Nc1ccc(C(N)=O)nc1 [Compound 182] | 290 nM |

| SMILES | IC50 |
| --- | --- |
| CCc1c(C(F)(F)F)ccc(Oc2ccc(OC(F)(F)F)cc2OC)c1C(=O)Nc1ccnc(C(N)=O)c1 [Compound 183, 4-[[2-ethyl-6-[2-methoxy-4-(trifluoromethoxy)phenoxy]-3-(trifluoromethyl)benzoyl]amino]pyridine-2-carboxamide] | 14 nM |
| CCc1c(C(F)(F)F)ccc(Oc2ccc(OC(F)(F)F)cc2OC)c1C(=O)Nc1ccc(C(N)=O)nc1 [Compound 184] | 140 nM |
| COc1cc(OC(F)(F)F)ccc1Oc1ccc(CC(C)C)c(C)c1C(=O)Nc1ccnc(C(N)=O)c1 [Compound 185, 4-[[3-isobutyl-6-[2-methoxy-4-(trifluoromethoxy)phenoxy]-2-methyl-benzoyl]amino]pyridine-2-carboxamide] | 11 nM |
| COc1cc(OC(F)(F)F)ccc1Oc1cc(C(F)(F)F)cc(C)c1C(=O)Nc1cc(C(N)=O)ncc1C [Compound 186, 4-[[2-[2-methoxy-4-(trifluoromethoxy)phenoxy]-6-methyl-4-(trifluoromethyl)benzoyl]amino]-5-methyl-pyridine-2-carboxamide] | 110 nM |
| COc1cc(OC(F)(F)F)ccc1Oc1cc(C(F)(F)F)cc(C)c1C(=O)Nc1ccc(C(N)=O)nc1 [Compound 187, 5-[[2-[2-methoxy-4-(trifluoromethoxy)phenoxy]-6-methyl-4-(trifluoromethyl)benzoyl]amino]pyridine-2-carboxamide] | 490 nM |
| COc1cc(OC(F)(F)F)ccc1Oc1cc(C(F)(F)F)cc(C)c1C(=O)Nc1ccnc(C(N)=O)c1 [Compound 188, 4-[[2-[2-methoxy-4-(trifluoromethoxy)phenoxy]-6-methyl-4-(trifluoromethyl)benzoyl]amino]pyridine-2-carboxamide] | 24 nM |
| COc1c(Oc2cc(C(F)(F)F)cc(C)c2C(=O)Nc2ccnc(C(N)=O)c2)ccc(F)c1F [Compound 189, 4-[[2-(3,4-difluoro-2-methoxy-phenoxy)-6-methyl-4-(trifluoromethyl)benzoyl]amino]pyridine-2-carboxamide] | 170 nM |
| Cc1c(C(F)(F)F)ccc(Oc2ccc(F)cc2Cl)c1C(=O)Nc1ccc(C(N)=O)nc1 [Compound 190, 5-[[6-(2-chloro-4-fluoro-phenoxy)-2-methyl-3-(trifluoromethyl)benzoyl]amino]pyridine-2-carboxamide] | 1500 nM |
| COc1cc(OC(F)(F)F)ccc1Oc1ccc(C(F)(F)F)c(Cl)c1C(=O)Nc1ccnc(C(N)=O)c1 [Compound 191, 4-[[2-chloro-6-[2-methoxy-4-(trifluoromethoxy)phenoxy]-3-(trifluoromethyl)benzoyl]amino]pyridine-2-carboxamide] | 2 nM |
| NC(=O)c1cc(NC(=O)c2c(Oc3ccc(OC(F)(F)F)cc3Cl)ccc(C(F)(F)F)c2Cl)ccn1 [Compound 192] | 4 nM |
| COc1c(Oc2ccc(C(F)(F)F)c(Cl)c2C(=O)Nc2ccnc(C(N)=O)c2)ccc(F)c1F [Compound 193] | 6 nM |
| COc1cc(OC(F)(F)F)ccc1Oc1ccc(C(F)(F)F)c(Br)c1C(=O)Nc1ccnc(C(N)=O)c1 [Compound 194, 4-[[2-bromo-6-[2-methoxy-4-(trifluoromethoxy)phenoxy]-3-(trifluoromethyl)benzoyl]amino]pyridine-2-carboxamide] | 2 nM |
| COc1c(Oc2ccc(C(F)(F)F)c(Br)c2C(=O)Nc2ccnc(C(N)=O)c2)ccc(OC(F)(F)F)c1F [Compound 195] | 5 nM |
| COc1c(Oc2ccc(C3CC3)c(C)c2C(=O)Nc2ccnc(C(N)=O)c2)ccc(OC(F)(F)F)c1F [Compound 196, 4-[[3-cyclopropyl-6-[3-fluoro-2-methoxy-4-(trifluoromethoxy)phenoxy]-2-methyl-benzoyl]amino]pyridine-2-carboxamide] | 9 nM |
| COc1c(Oc2ccc(C3CC3)c(C)c2C(=O)Nc2ccc(C(N)=O)nc2)ccc(OC(F)(F)F)c1F [Compound 197, 5-[[3-cyclopropyl-6-[3-fluoro-2-methoxy-4-(trifluoromethoxy)phenoxy]-2-methyl-benzoyl]amino]pyridine-2-carboxamide] | 120 nM |
| COc1cc(OC(F)(F)F)ccc1Oc1ccc(C2CC2)c(C)c1C(=O)Nc1cc(C(N)=O)ncc1C [Compound 198, 4-[[3-cyclopropyl-6-[2-methoxy-4-(trifluoromethoxy)phenoxy]-2-methyl-benzoyl]amino]-5-methyl-pyridine-2-carboxamide] | 15 nM |
| Cc1c(C2CC2)ccc(Oc2ccc(OC(F)(F)F)cc2Cl)c1C(=O)Nc1ccnc(C(N)=O)c1 [Compound 199, 4-[[6-[2-chloro-4-(trifluoromethoxy)phenoxy]-3-cyclopropyl-2-methyl-benzoyl]amino]pyridine-2-carboxamide] | 21 nM |

Source: patent US12441703B2, “Carboxamides as modulators of sodium channels” (VERTEX PHARMACEUTICALS INCORPORATED, priority 2019, dated 2025)
